From patent US9206191B2, “Indazoles for the treatment and prophylaxis of respiratory syncytial virus infection” (Hoffmann-La Roche Inc., priority 2012, dated 2015)

System: RSV Long strain
Test: Viral Cytopathic Effect (CPE) Assay
Type: cell-based
Conditions: human respiratory syncytial virus, 144 h, cell viability after 6 days, Cell Counting kit-8

| Compound | EC50 |
| --- | --- |
| CS(=O)(=O)CCCn1c(Cn2cc(S(C)(=O)=O)c3ccccc32)nc2cc(Cl)ccc21 [Example 1-2, 5-Chloro-2-{[3-(methylsulfonyl)-1H-indol-1-yl]methyl}-1-[3-(methylsulfonyl)propyl]-1H-benzimidazole] | 62.5 nM |
| CS(=O)(=O)CCCn1c(Cn2cc(S(C)(=O)=O)c3cc(F)ccc32)nc2cc(Cl)ccc21 [Example 1-3, 5-Chloro-2-{[5-fluoro-3-(methylsulfonyl)-1H-indol-1-yl]methyl}-1-[3-(methylsulfonyl)propyl]-1H-benzimidazole] | 197 nM |
| CS(=O)(=O)CCCn1c(Cn2cc(S(C)(=O)=O)c3ccncc32)nc2cc(Cl)ccc21 [Example 1-4, 5-Chloro-1-[3-(methylsulfonyl)propyl]-2-{[3-(methylsulfonyl)-1H-pyrrolo[2,3-c]pyridin-1-yl]methyl}-1H-benzimidazole] | 82 nM |
| CCS(=O)(=O)c1cn(Cc2nc3cc(Cl)ccc3n2CCCS(C)(=O)=O)c2ccccc12 [Example 1-5, 5-Chloro-2-{[3-(ethylsulfonyl)-1H-indol-1-yl]methyl}-1-[3-(methylsulfonyl)propyl]-1H-benzimidazole] | 65 nM |
| CC(C)S(=O)(=O)c1cn(Cc2nc3cc(Cl)ccc3n2CCCS(C)(=O)=O)c2ccccc12 [Example 1-6, 5-Chloro-1-[3-(methylsulfonyl)propyl]-2-{[3-(propan-2-ylsulfonyl)-1H-indol-1-yl]methyl}-1H-benzimidazole] | 119 nM |
| CS(=O)(=O)CCCn1c(Cn2cc(S(=O)(=O)C3CC3)c3ccccc32)nc2cc(Cl)ccc21 [Example 1-7, 5-Chloro-2-{[3-(cyclopropylsulfonyl)-1H-indol-1-yl]methyl}-1-[3-(methylsulfonyl)propyl]-1H-benzimidazole] | 227 nM |
| CC(C)S(=O)(=O)c1nn(Cc2nc3cc(Cl)ccc3n2CCCS(C)(=O)=O)c2ccccc12 [Example 1-9, 1-({5-Chloro-1-[3-(methylsulfonyl)propyl]-1H-benzimidazol-2-yl}methyl)-3-(propan-2-ylsulfonyl)-1H-indazole] | 74.4 nM |
| CCS(=O)(=O)c1nn(Cc2nc3cc(Cl)ccc3n2CCCS(C)(=O)=O)c2ccccc12 [Example 1-10, 1-({5-Chloro-1-[3-(methylsulfonyl)propyl]-1H-benzimidazol-2-yl}methyl)-3-(ethylsulfonyl)-1H-indazole] | 37.8 nM |
| CS(=O)(=O)CCCn1c(Cn2nc(S(C)(=O)=O)c3ccncc32)nc2cc(Cl)ccc21 [Example 1-11, 1-({5-Chloro-1-[3-(methylsulfonyl)propyl]-1H-benzimidazol-2-yl}methyl)-3-(methylsulfonyl)-1H-pyrazolo[3,4-c]pyridine] | 4.6 nM |
| CC(C)S(=O)(=O)c1nn(Cc2nc3cc(Cl)ccc3n2CCS(C)(=O)=O)c2ccccc12 [Example 1-13, 1-({5-Chloro-1-[2-(methylsulfonyl)ethyl]-1H-benzimidazol-2-yl}methyl)-3-(propan-2-ylsulfonyl)-1H-indazole] | 312 nM |
| CC(=O)N1CCC(n2c(Cn3nc(S(C)(=O)=O)c4ccncc43)nc3cc(Cl)ccc32)C1 (stereo not drawn) [Example 2-16, 1-[3-(5-Chloro-2-{[3-(methylsulfonyl)-1H-pyrazolo[3,4-c]pyridin-1-yl]methyl}-1H-benzimidazol-1-yl)pyrrolidin-1-yl]ethanone] | 16.4 nM |
| CS(=O)(=O)c1nn(Cc2nc3cc(Cl)ccc3n2C2CCN(C(=O)CO)C2)c2cnccc12 (stereo not drawn) [Example 2-17, 1-[3-(5-Chloro-2-{[3-(methylsulfonyl)-1H-pyrazolo[3,4-c]pyridin-1-yl]methyl}-1H-benzimidazol-1-yl)pyrrolidin-1-yl]-2-hydroxyethanone] | 10.9 nM |
| CS(=O)(=O)c1nn(Cc2nc3cc(Cl)ccc3n2C2CCN(C(=O)CN)C2)c2cnccc12 (stereo not drawn) [Example 2-18, 2-Amino-1-[3-(5-chloro-2-{[3-(methylsulfonyl)-1H-pyrazolo[3,4-c]pyridin-1-yl]methyl}-1H-benzimidazol-1-yl)pyrrolidin-1-yl]ethanone] | 36 nM |
| CS(=O)(=O)c1nn(Cc2nc3cc(Cl)ccc3n2[C@H]2CCN(CC(F)(F)F)C2)c2cnccc12 [Example 2-19, 1-({5-Chloro-1-[(3S)-1-(2,2,2-trifluoroethyl)pyrrolidin-3-yl]-1H-benzimidazol-2-yl}methyl)-3-(methylsulfonyl)-1H-pyrazolo[3,4-c]pyridine] | 1170 nM |

The remaining lines, values ahead:

| EC50 | Compound |
| --- | --- |
| 2 nM | CS(=O)(=O)c1nn(Cc2nc3cc(Cl)ccc3n2[C@H]2CC[C@H](O)C2)c2cnccc12 (relative stereo) [Example 2-36, trans-3-(5-chloro-2-{[3-(methylsulfonyl)-1H-pyrazolo[3,4-c]pyridin-1-yl]methyl}-1H-benzimidazol-1-yl)cyclopentanol] |
| 17.9 nM | C[C@@]1(O)CC[C@H](n2c(Cn3nc(S(C)(=O)=O)c4ccncc43)nc3cc(Cl)ccc32)C1 (relative stereo) [Example 2-43, cis-3-(5-chloro-2-{[3-(methylsulfonyl)-1H-pyrazolo[3,4-c]pyridin-1-yl]methyl}-1H-benzimidazol-1-yl)-1-methylcyclopentanol] |
| 8.99 nM | CS(=O)(=O)c1nn(Cc2nc3cc(Cl)ccc3n2C2CCS(=O)(=O)C2)c2cnccc12 (stereo in doubt) [Example 2-1, 1-({5-Chloro-1-[(3R)-1,1-dioxidotetrahydrothiophen-3-yl]-1H-benzimidazol-2-yl}methyl)-3-(methylsulfonyl)-1H-pyrazolo[3,4-c]pyridine] |
| 16 nM | CS(=O)(=O)CCCn1c(Cn2nc(S(C)(=O)=O)c3ccccc32)nc2cc(Cl)ccc21 [Example 1-8, 1-({5-Chloro-1-[3-(methylsulfonyl)propyl]-1H-benzimidazol-2-yl}methyl)-3-(methylsulfonyl)-1H-indazole] |
| 26.2 nM | CS(=O)(=O)CCn1c(Cn2nc(S(C)(=O)=O)c3ccccc32)nc2cc(Cl)ccc21 [Example 1-12, 1-({5-Chloro-1-[2-(methylsulfonyl)ethyl]-1H-benzimidazol-2-yl}methyl)-3-(methylsulfonyl)-1H-indazole] |
| 7.86 nM | CS(=O)(=O)c1nn(Cc2nc3cc(Cl)ccc3n2C2CCS(=O)(=O)C2)c2ccccc12 (stereo not drawn) [Example 2-2, 1-{[5-Chloro-1-(1,1-dioxidotetrahydrothiophen-3-yl)-1H-benzimidazol-2-yl]methyl}-3-(methylsulfonyl)-1H-indazole] |
| 21.8 nM | CS(=O)(=O)c1nn(Cc2nc3cc(Cl)ccc3n2C2COC2)c2ccccc12 [Example 2-3, 1-{[5-Chloro-1-(oxetan-3-yl)-1H-benzimidazol-2-yl]methyl}-3-(methylsulfonyl)-1H-indazole] |
| 7.35 nM | CS(=O)(=O)c1nn(Cc2nc3cc(Cl)ccc3n2C2CCNC(=O)C2)c2cnccc12 (stereo not drawn) [Example 2-4, 4-(5-Chloro-2-{[3-(methylsulfonyl)-1H-pyrazolo[3,4-c]pyridin-1-yl]methyl}-1H-benzimidazol-1-yl)piperidin-2-one] |
| 22.4 nM | CS(=O)(=O)c1nn(Cc2nc3cc(Cl)ccc3n2C2COC2)c2cnccc12 [Example 2-5, 1-{[5-Chloro-1-(oxetan-3-yl)-1H-benzimidazol-2-yl]methyl}-3-(methylsulfonyl)-1H-pyrazolo[3,4-c]pyridine] |
| 21.8 nM | CS(=O)(=O)c1nn(Cc2nc3cc(Cl)ccc3n2C2CCOCC2)c2ccccc12 [Example 2-6, 1-{[5-Chloro-1-(tetrahydro-2H-pyran-4-yl)-1H-benzimidazol-2-yl]methyl}-3-(methylsulfonyl)-1H-indazole] |
| 7.72 nM | CS(=O)(=O)c1nn(Cc2nc3cc(Cl)ccc3n2C2CCOCC2)c2cnccc12 [Example 2-7, 1-{[5-Chloro-1-(tetrahydro-2H-pyran-4-yl)-1H-benzimidazol-2-yl]methyl}-3-(methylsulfonyl)-1H-pyrazolo[3,4-c]pyridine] |
| 36.1 nM | CS(=O)(=O)c1nn(Cc2nc3cc(Cl)ccc3n2C2CCOC2)c2ccccc12 (stereo not drawn) [Example 2-8, 1-{[5-Chloro-1-(tetrahydrofuran-3-yl)-1H-benzimidazol-2-yl]methyl}-3-(methylsulfonyl)-1H-indazole] |
| 6.97 nM | CS(=O)(=O)c1nn(Cc2nc3cc(Cl)ccc3n2C2CCC(F)(F)C2)c2ccccc12 (stereo not drawn) [Example 2-9, 1-{[5-Chloro-1-(3,3-difluorocyclopentyl)-1H-benzimidazol-2-yl]methyl}-3-(methylsulfonyl)-1H-indazole] |
| 14.3 nM | CS(=O)(=O)c1nn(Cc2nc3cc(Cl)ccc3n2C2CCC(F)(F)C2)c2cnccc12 (stereo not drawn) [Example 2-10, 1-{[5-Chloro-1-(3,3-difluorocyclopentyl)-1H-benzimidazol-2-yl]methyl}-3-(methylsulfonyl)-1H-pyrazolo[3,4-c]pyridine] |
| 8.2 nM | CS(=O)(=O)c1nn(Cc2nc3cc(Cl)ccc3n2C2CCC(O)CC2)c2cnccc12 (stereo not drawn) [Example 2-11, 4-(5-Chloro-2-{[3-(methylsulfonyl)-1H-pyrazolo[3,4-c]pyridin-1-yl]methyl}-1H-benzimidazol-1-yl)cyclohexanol] |
| 769 nM | CS(=O)(=O)c1nn(Cc2nc3cc(Cl)ccc3n2C2CCC(O)C2)c2c[n+]([O-])ccc12 (stereo not drawn) [Example 2-12, 3-(5-Chloro-2-{[3-(methylsulfonyl)-6-oxido-1H-pyrazolo[3,4-c]pyridin-1-yl]methyl}-1H-benzimidazol-1-yl)cyclopentanol] |
| 44.2 nM | CS(=O)(=O)c1nn(Cc2nc3cc(Cl)ccc3n2C2CCNC2)c2cnccc12 (stereo not drawn) [Example 2-13, 1-{[5-Chloro-1-(pyrrolidin-3-yl)-1H-benzimidazol-2-yl]methyl}-3-(methylsulfonyl)-1H-pyrazolo[3,4-c]pyridine] |
| 708 nM | CS(=O)(=O)c1nn(Cc2nc3cc(Cl)ccc3n2C2CNC2)c2cnccc12 [Example 2-14, 1-{[1-(Azetidin-3-yl)-5-chloro-1H-benzimidazol-2-yl]methyl}-3-(methylsulfonyl)-1H-pyrazolo[3,4-c]pyridine] |
| 591 nM | CS(=O)(=O)c1nn(Cc2nc3cc(Cl)ccc3n2C2CCNCC2)c2ccccc12 [Example 2-15, 1-{[5-Chloro-1-(piperidin-4-yl)-1H-benzimidazol-2-yl]methyl}-3-(methylsulfonyl)-1H-indazole] |
